The values below are quoted from earlier work in US20050124660A1, “Novel medical uses of compounds showing CB1-antagonistic activity and combination treatment involving said compounds” (priority 2003, published 2005).

Where two headings read alike, the source gives them in different places.

The conditions of data set [1]: in vivo; cited from earlier work.
For data set [2] the following is noted: cited from earlier work.
The conditions of data set [3]: cited from earlier work. The source holds these as a separate data set.
The mark [4] stands for this setting: treatment groups 60, 120 and 240 mg.

As for `CCCCCCCCCCCCCCCCOc1nc2ccc(C)cc2c(=O)o1` [ATL-962, 2-hexadecyloxy-6-methyl-4H-3,1-benzoxazin-4-one], the preclinical toxicity result in data set [1] is reported as “no toxicity was observed”. In addition, in data set [2] (50 mg to 300 mg), the “subjects with a 3-fold or greater increase in fat excretion compared to placebo” value was 55% and the “subjects with a 7-fold or greater increase in fat excretion compared to placebo” value was 27%. Also, in data set [2] (phase Ib, healthy male volunteers), the safety and tolerability result is “safe and well tolerated”. In addition, the “weight compared to placebo” value in data set [3] (60, 120 and 240 mg, obese patients) is reported as “significant reduction in weight”. Besides, the safety and tolerability entry in data set [3] (phase IIb, obese patients) is “safe and generally well tolerated”. For the same compound, in data set [3] (setting [4]), the HDL-cholesterol levels result is on record as “no difference”, the LDL-cholesterol entry is reported as “decreased” and the Total cholesterol result is recorded as “decreased”.
